Laboratory results as given in patent US20210122730A1, “GLUCOCORTICOID RECEPTOR MODULATORS” (ORIC Pharmaceuticals, Inc., priority 2017, published 2021).

These compounds were tested against T1, GR (Homo sapiens, UniProt P04150) (assay: In Vitro GR Luciferase Reporter Assay (antagonist mode, CHO-K1-GR-MMTV-Luc reporter cells)). Settings: antagonist mode, 10 nM Dexamethasone.
T1 construct: expressed in transfected cells; host or cells: CHO-K1
T1 sequence (P04150 1-777): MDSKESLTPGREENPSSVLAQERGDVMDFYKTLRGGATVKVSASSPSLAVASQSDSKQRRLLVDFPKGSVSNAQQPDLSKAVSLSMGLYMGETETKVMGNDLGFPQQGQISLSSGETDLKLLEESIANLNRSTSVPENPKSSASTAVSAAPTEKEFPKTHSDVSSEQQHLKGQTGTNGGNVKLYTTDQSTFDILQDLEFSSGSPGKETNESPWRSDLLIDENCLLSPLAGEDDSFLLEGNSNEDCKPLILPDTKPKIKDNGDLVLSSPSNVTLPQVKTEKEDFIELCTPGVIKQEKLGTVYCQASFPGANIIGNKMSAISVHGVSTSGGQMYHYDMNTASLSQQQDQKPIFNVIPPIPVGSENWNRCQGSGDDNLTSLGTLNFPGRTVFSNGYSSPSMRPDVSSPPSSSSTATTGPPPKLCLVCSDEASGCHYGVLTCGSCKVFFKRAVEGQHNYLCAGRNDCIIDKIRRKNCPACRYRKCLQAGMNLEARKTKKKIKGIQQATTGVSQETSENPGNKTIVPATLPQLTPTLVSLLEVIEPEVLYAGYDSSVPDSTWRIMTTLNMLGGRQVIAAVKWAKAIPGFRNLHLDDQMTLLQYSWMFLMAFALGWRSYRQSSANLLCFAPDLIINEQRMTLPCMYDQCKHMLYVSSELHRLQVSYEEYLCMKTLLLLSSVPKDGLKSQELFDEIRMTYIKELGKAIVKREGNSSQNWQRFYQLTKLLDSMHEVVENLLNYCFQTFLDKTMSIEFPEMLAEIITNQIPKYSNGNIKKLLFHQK
Assay type: cell-based
Method in brief: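 Antagonist mode: compounds (8 serial 1:5 dilutions) added to GR-MMTV-luciferase CHO-K1 reporter cells co-exposed to 10 nM dexamethasone final, in phenol red-free DMEM plus 10% CSS. After roughly 18-24 h at 37° C, OneGlo luminescence read and IC50 calculated.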

IC50 [nM]	Compound
≤ 100	CCN([C@H]1CCC2=Cc3c(cnn3-c3ccc(F)cc3)C[C@]2(C(=O)c2ncc(C(F)(F)F)s2)C1)S(=O)(=O)c1cncn1C [Example 376, N-ethyl-N-((4aS,6S)-1-(4-fluorophenyl)-4a-(5-(trifluoromethyl)thiazole-2-carbonyl)-4,4a,5,6,7,8-hexahydro-1H-benzo[f]indazol-6-yl)-1-methyl-1H-imidazole-5-sulfonamide]
≤ 100	Cn1cnc(S(=O)(=O)N(CC(F)(F)F)[C@H]2CCC3=Cc4c(cnn4-c4ccc(F)cc4)C[C@]3(C(=O)c3cc(C(F)(F)F)ccn3)C2)n1 [Example 378, N-((4aS,6S)-1-(4-fluorophenyl)-4a-(4-(trifluoromethyl)picolinoyl)-4,4a,5,6,7,8-hexahydro-1H-benzo[f]indazol-6-yl)-1-methyl-N-(2,2,2-trifluoroethyl)-1H-1,2,4-triazole-3-sulfonamide]
≤ 100	Cn1ccc(S(=O)(=O)N(CCF)[C@H]2CCC3=Cc4c(cnn4-c4ccc(F)cc4)C[C@]3(C(=O)c3cc(C(F)(F)F)ccn3)C2)n1 [Example 380, N-(2-fluoroethyl)-N-((4aS,6S)-1-(4-fluorophenyl)-4a-(4-(trifluoromethyl)picolinoyl)-4,4a,5,6,7,8-hexahydro-1H-benzo[f]indazol-6-yl)-1-methyl-1H-pyrazole-3-sulfonamide]
≤ 100	Cn1cnc(S(=O)(=O)N(CCF)[C@H]2CCC3=Cc4c(cnn4-c4ccc(F)cc4)C[C@]3(C(=O)c3ncc(C(F)(F)F)s3)C2)n1 [Example 382, N-(2-fluoroethyl)-N-((4aS,6S)-1-(4-fluorophenyl)-4a-(5-(trifluoromethyl)thiazole-2-carbonyl)-4,4a,5,6,7,8-hexahydro-1H-benzo[f]indazol-6-yl)-1-methyl-1H-1,2,4-triazole-3-sulfonamide]
≤ 100	Cn1cnc(S(=O)(=O)N(CCF)[C@H]2CCC3=Cc4c(cnn4-c4ccc(F)cc4)C[C@]3(C(=O)c3cc(C(F)(F)F)ccn3)C2)n1 [Example 385, N-(2-fluoroethyl)-N-((4aS,6S)-1-(4-fluorophenyl)-4a-(4-(trifluoromethyl)picolinoyl)-4,4a,5,6,7,8-hexahydro-1H-benzo[f]indazol-6-yl)-1-methyl-1H-1,2,4-triazole-3-sulfonamide]

Further lines, the compound ahead of its results:

Compound	IC50 [nM]
Cn1cnc(S(=O)(=O)CC2CCC3=Cc4c(cnn4-c4ccc(F)cc4)C[C@]3(C(=O)c3ncc(C(F)(F)F)s3)C2)n1 (stereo partly drawn) [Example 379, ((4aR)-1-(4-fluorophenyl)-6-(((1-methyl-1H-1,2,4-triazol-3-yl)sulfonyl)methyl)-1,4,5,6,7,8-hexahydro-4aH-benzo[f]indazol-4a-yl)(5-(trifluoromethyl)thiazol-2-yl)methanone]	≤ 100
CO[C@]1(C)C[C@H](N([C@H]2CCC3=Cc4c(cnn4-c4ccc(F)cc4)C[C@]3(C(=O)c3cc(Cl)ccn3)C2)S(=O)(=O)c2ccn(C)n2)C1 [Example 381, N-((4aS,6S)-4a-(4-chloropicolinoyl)-1-(4-fluorophenyl)-4,4a,5,6,7,8-hexahydro-1H-benzo[f]indazol-6-yl)-N-((1s,3R)-3-methoxy-3-methylcyclobutyl)-1-methyl-1H-pyrazole-3-sulfonamide]	≤ 100
Cn1cnc(S(=O)(=O)N(CC(F)F)[C@H]2CCC3=Cc4c(cnn4-c4ccc(F)cc4)C[C@]3(C(=O)c3ncc(C(F)(F)F)s3)C2)c1 [Example 383, N-(2,2-difluoroethyl)-N-((4aS,6S)-1-(4-fluorophenyl)-4a-(5-(trifluoromethyl)thiazole-2-carbonyl)-4,4a,5,6,7,8-hexahydro-1H-benzo[f]indazol-6-yl)-1-methyl-1H-imidazole-4-sulfonamide]	≤ 100
CO[C@]1(C)C[C@H](N([C@H]2CCC3=Cc4c(cnn4-c4ccc(F)cc4)C[C@]3(C(=O)c3cc(C(F)(F)F)ccn3)C2)S(=O)(=O)c2ccn(C)n2)C1 [Example 384, N-((4aS,6S)-1-(4-fluorophenyl)-4a-(4-(trifluoromethyl)picolinoyl)-4,4a,5,6,7,8-hexahydro-1H-benzo[f]indazol-6-yl)-N-((1s,3R)-3-methoxy-3-methylcyclobutyl)-1-methyl-1H-pyrazole-3-sulfonamide]	≤ 100
